From article PMC7807051, “Modulation of cAMP metabolism for CFTR potentiation in human airway epithelial cells” (Scientific Reports, 2021)

Key:
[1] = tested on: CFTR; assay: In vitro CFTR membrane potential assay in Calu-3 cells; format: cell-based, human; conditions: Calu-3
Procedure: An in vitro CFTR membrane potential assay was performed on Calu-3 cells and primary human bronchial epithelial cells, from two independent donors, cultured at 37 °C as previously described. All human samples were collected from consented individuals under ethics approval granted by Hamilton Integrated Research Ethics Board (Project Number 5099-T).
Calu-3 cells were grown for 21 days on 96-well plates and primary HBECs were grown for 14 days under air–liquid interface conditions on collagen-coated (Sigma-Aldrich) 6.5 mm Transwell Inserts (Corning). All cells were washed with HBSS prior to experimental conditions. After washing with HBSS, cells were loaded with BLUE Membrane Potential Dye (Molecular Devices, #R8042) dissolved in 37 °C chloride-free buffer (NMDG Gluconate Buffer – 150 mM NMDG-gluconate, 3 mM KCl, 10 mM HEPES, pH 7.35, 300 mOsm). Immediately after dye loading, CFTR activity measurements were taken. CFTR activity measurements are fluorescent readouts for detecting ion channel activity. CFTR inhibition was performed with CFTRinh-172 (10 μM) for all experiments to attribute changes in fluorescence as CFTR channel activity. This assay has been validated using proof of concept studies where results obtained from this assay were able to recapitulate findings obtained from direct measurements of ion channel activity using Ussing chambers. At the end of this assay, raw data was exported for statistical analysis.
For Calu-3 cells, measurements were taken during baseline (40 min), cAMP elevation (30 min), and CFTR inhibition (20 min). cAMP elevation was performed using forskolin or isoproterenol (0.0005–50 μM). For assays with ABCC4 or PDE-4 inhibitors, a pre-incubation with the inhibitors (30 min) in the plate reader was performed prior to cAMP elevation. CFTR modulator VX-770 was used at 1 μM. CFTR activity was determined by dividing a single membrane potential peak measurement after the ABCC4 or PDE-4 inhibition and cAMP elevation additions to the stabilized baseline over DMSO control.
For in vitro CFTR membrane potential assays, in Calu-3 cells, values were normalized to the averaged baseline over averaged vehicle (DMSO) control of all biological replicates. SD was calculated using data from biological replicates (n = 4–8). An area under the curve (AUC), half-maximal concentration (EC50), […] (Emax), and baseline analysis was performed for each individual replicate then averaged together. The AUC analysis is an aggregate measure of sensitivity and maximal response, allowing for the observation of the total net responsiveness of the cells. The AUC analysis was done by normalizing the individual replicates to the bottom most value of the averaged vehicle control. In primary HBECs, six independent measurements were taken within a single Transwell insert. The value is the average of at least six measurements. These values were normalized to the averaged baseline over the averaged vehicle (DMSO) control. SD was calculated by treating the six measurements as independent, with additional technical replicates (n = 6–18). An AUC and max peak analysis were performed for each measurement, then averaged together. The max peak analysis was the max CFTR activity achieved during the drug addition step.
In order to compare the independent experiments performed, a fold-change analysis using individual AUC, EC50, and Emax, determined from their respective concentration–response curves, was performed and was normalized to the averaged DMSO vehicle control. A one-way ANOVA with subsequent post-hoc test or a paired t-test was performed. Statistical analysis was performed using GraphPad Prism 6.

[2] = tested on: G551D-CFTR; parameters: method as in PMID 21083385, PMID 22047557; conditions: G551D-CFTR variants; various doses and treatment durations; cited from earlier work
[3] = forskolin (FSK) curve with agent vs DMSO control
[4] = isoproterenol (ISO) curve with agent vs DMSO control

EC50 of concentration–response curve, CFTR activity [1, 3]: increased the sensitivity | EC50 of concentration–response curve, CFTR activity [1, 4]: no changes
Compound: CC(C)(C)c1cc(C(C)(C)C)c(NC(=O)c2c[nH]c3ccccc3c2=O)cc1O [VX-770, ivacaftor]
Fold-change of AUC relative to vehicle control ([1]; FSK stimulation, comparison across independent experiments): superior to either ABCC4 (MK-571) or PDE-4 (Roflumilast) inhibition alone | Baseline of concentration–response curve, CFTR activity [1, 3]: no significant changes | Emax of concentration–response curve, CFTR activity [1, 3]: remained unchanged | AUC of concentration–response curve, CFTR activity ([1]; forskolin (FSK) curve with agent vs DMSO control, VX-770 1 μM, MK-571 1.8 μM, Ceefourin-1 4.8 μM, Roflumilast 1 μM, Rolipram 10 μM, IBMX 100 μM): significant increase | Baseline of concentration–response curve, CFTR activity [1, 4]: significant increase | Emax of concentration–response curve, CFTR activity [1, 4]: no changes | AUC of concentration–response curve, CFTR activity ([1]; isoproterenol (ISO) curve with agent vs DMSO control, same agent concentrations as E5): significant increase | predicted forced expiratory volume in 1 s (FEV1) from baseline [2]: significant increases
